{"source": "patent US6825210B2", "about": "“Tricyclic compounds useful as HIV reverse transcriptase inhibitors” (Bristol-Myers Squibb Pharma Company, priority 2001, dated 2004)", "data": [{"test_system": "not given", "test": "not given", "conditions": "not given", "units": {"melting point": "°C"}, "values": [{"smiles": "CC(C)OCC1(C(F)(F)F)c2cc(F)ccc2Nc2ncc(Cl)cc21", "note": "(stereo not drawn) [Compound 6, 3-Chloro-7-fluoro-5-isopropoxymethyl-5-trifluoromethyl-5,10-dihydro-benzo[b][1,8]naphthyridine]", "melting point": "96 to 97"}, {"smiles": "CC(C)OCC1(C(F)(F)F)c2cc(F)ccc2Nc2c1cc(Cl)c[n+]2[O-]", "note": "(stereo not drawn) [Compound 7, 3-Chloro-7-fluoro-5-isopropoxymethyl-5-trifluoromethyl-5,10-dihydro-benzo[b][1,8]naphthyridine 1-oxide]", "melting point": "165 to 166"}, {"smiles": "CC(C)OCC1(C(F)(F)F)c2cc(Cl)ccc2Nc2ncc(Cl)cc21", "note": "(stereo not drawn) [Compound 9, 3,7-Dichloro-5-isopropoxymethyl-5-trifluoromethyl-5,10-dihydro-benzo[b][1,8]naphthyridine]", "melting point": "137 to 138"}, {"smiles": "CC(C)OCC1(C(F)(F)F)c2cc(C#N)ccc2Nc2ncc(Br)cc21", "note": "(stereo not drawn) [Compound 15, 3-bromo-7-cyano-5-trifluoromethyl-5-isopropoxymethyl-5,10-dihydrobenzo[b][1,8]naphthyridine]", "melting point": "76 to 77"}, {"smiles": "CC(C)OCC1(C(F)(F)F)c2cc(C#N)ccc2Nc2ncc(C#N)cc21", "note": "(stereo not drawn) [Compound 17, 3,7-dicyano-5-trifluoromethyl-5-isopropoxymethyl-5,10-dihydrobenzo[b][1,8]naphthyridine]", "melting point": "226 to 227"}]}, {"test_system": "HIV-1 (RF)", "test": "HIV RNA assay: microplate based compound evaluation in HIV-1 infected MT-2 cells", "format": "cell-based", "conditions": "Human immunodeficiency virus 1, MT2, 72 h; HIV-1 (RF) infected MT-2 cells, 3 days culture; value used to standardize the virus inoculum; read-out: IC90 (concentration of compound required to reduce the HIV RNA level by 90%)", "protocol": "DNA Plasmids and in Vitro RNA Transcripts:\nPlasmid pDAB 72 containing both gag and pol sequences of BH10 (bp 113-1816) cloned into PTZ 19R was prepared according to Erickson-Viitanen et al. AIDS Research and Human Retroviruses 1989, 5, 577. The plasmid was linearized with Bam HI prior to the generation of in vitro RNA transcripts using the Riboprobe Gemini system II kit (Promega) with T7 RNA polymerase. Synthesized RNA was purified by treatment with RNase free DNAse (Promega), phenol-chloroform extraction, and ethanol precipitation. RNA transcripts were dissolved in water, and stored at −70° C. The concentration of RNA was determined from the A260.\nBiotinylated capture probes were purified by HPLC after synthesis on an Applied Biosystems (Foster City, Calif.) DNA synthesizer by addition of biotin to the 5′ terminal end of the oligonucleotide, using the biotin-phosphoramidite reagent of Cocuzza, Tet. Lett. 1989, 30, 6287. […]\nMT-2 and MT-4 cells were maintained in RPMI 1640 supplemented with 5% fetal calf serum (FCS) for MT-2 cells or 10% FCS for MT-4 cells, 2 mM L-glutamine and 50 μg/mL gentamycin, all from Gibco. […] Infectious titers of HIV-1(RF) stocks were 1-3×10^7 PFU (plaque forming units)/mL as measured by plaque assay on MT-2 cells (see below). […]", "units": {"IC90": "µg/mL"}, "values": [{"smiles": "Nc1ccn([C@H]2CC[C@@H](CO)O2)c(=O)n1", "note": "[ddC, 2′,3′-dideoxycytidine]", "IC90": 0.2}]}]}
